Measurements from patent US9315464B1 (priority 2013, dated 2016).

Tests used:
[1] = system: non-specific promoter (BAX promoter-driven luciferase) in HEK-293T cells; assay: irrelevant promoter-containing cell-based reporter assay (luciferase driven by the BAX promoter, control); details: BAX promoter luciferase in HEK-293T cells, indicator of non-specific toxicity
[2] = system: influenza A reporter assay system (viral UTR promoter / viral RNA-dependent RNA polymerase); type: cell-based, Influenza A virus (mouse B16-F10 melanoma cells)
[3] = system: influenza A/Puerto Rico/8/34 virus; assay: Hemagglutination assay of influenza A replication in MDCK cells; type: cell-based; details: 75 uM compound, influenza A/Puerto Rico/8/34 dilution series, FIG. 5A

O=C(Nc1ccc(S(=O)(=O)Nc2nccs2)cc1)c1cc(-c2ccccc2)nc2ccccc12 [A0259, 2-phenyl-N-{4-[(1,3-thiazol-2-yl)sulfamoyl]phenyl}quinoline-4-carboxamide]
impact on a non-specific promoter [1]: smallest impact
inhibition of the influenza reporter system [2]: most dramatic inhibition
inhibition of influenza A viral replication in recipient cells (hemagglutination, settling cell buttons) [3]: viral dilutions below a thousand-fold from stock were inhibited from successfully replicating
